Experimental data: patent US12492188B2, “1H-benzo[D]imidazole derivatives as TLR9 inhibitors for the treatment of fibrosis” (BRISTOL-MYERS SQUIBB COMPANY, priority 2020, dated 2025)
Like-named read-outs stand apart in the source and are kept apart here.

How the values were obtained:
Type in all cases: cell-based
human TLR7 = target: T1, human TLR7 (Homo sapiens, UniProt Q9NYK1); assay: TLR7 inhibition reporter assay (HEK-Blue cells, secreted embryonic alkaline phosphatase reporter); details: HEK-Blue cells overexpressing human TLR7, stimulated with gardiquimod 7.5 μM; read-out: TLR 7 IC50
T1 construct: host or cells: HEK-Blue cells (HEK293-derived reporter line)
T1 sequence (Q9NYK1 27-1049): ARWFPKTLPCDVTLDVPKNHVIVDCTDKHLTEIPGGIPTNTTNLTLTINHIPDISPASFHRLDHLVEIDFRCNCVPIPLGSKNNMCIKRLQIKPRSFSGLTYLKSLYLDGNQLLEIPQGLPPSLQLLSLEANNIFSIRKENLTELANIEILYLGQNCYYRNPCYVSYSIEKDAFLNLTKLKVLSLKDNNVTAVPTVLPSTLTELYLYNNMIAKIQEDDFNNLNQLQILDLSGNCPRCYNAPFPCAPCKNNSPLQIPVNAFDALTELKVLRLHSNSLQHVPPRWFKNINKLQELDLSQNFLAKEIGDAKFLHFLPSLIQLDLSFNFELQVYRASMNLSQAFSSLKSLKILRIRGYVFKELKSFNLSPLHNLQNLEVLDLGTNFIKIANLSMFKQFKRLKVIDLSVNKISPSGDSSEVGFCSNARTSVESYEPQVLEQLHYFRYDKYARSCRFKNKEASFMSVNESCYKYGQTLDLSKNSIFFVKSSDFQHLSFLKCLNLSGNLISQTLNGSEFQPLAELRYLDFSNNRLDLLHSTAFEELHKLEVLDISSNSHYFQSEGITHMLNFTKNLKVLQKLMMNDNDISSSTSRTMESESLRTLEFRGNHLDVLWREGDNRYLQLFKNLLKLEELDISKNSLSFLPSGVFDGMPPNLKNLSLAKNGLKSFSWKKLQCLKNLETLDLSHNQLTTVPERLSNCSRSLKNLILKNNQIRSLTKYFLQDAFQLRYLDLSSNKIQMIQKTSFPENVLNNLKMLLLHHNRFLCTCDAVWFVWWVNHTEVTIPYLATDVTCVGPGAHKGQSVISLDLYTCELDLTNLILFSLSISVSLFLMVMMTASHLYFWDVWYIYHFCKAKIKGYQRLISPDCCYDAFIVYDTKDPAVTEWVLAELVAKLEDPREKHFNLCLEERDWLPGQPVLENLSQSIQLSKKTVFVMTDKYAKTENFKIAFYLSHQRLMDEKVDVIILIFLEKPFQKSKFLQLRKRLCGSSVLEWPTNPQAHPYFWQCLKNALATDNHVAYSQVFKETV
Outline: (§1)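 HEK-Blue cells expressing human TLR7, TLR8 or TLR9 with an NF-κB/AP-1-driven SEAP reporter were pretreated with compound (0.05 nM–50 μM final) for 30 min at room temperature. Agonists were gardiquimod 7.5 μM for TLR7, R848 15.9 μM for TLR8 and ODN2006 5 nM for TLR9. SEAP was read after 22 h at 37 °C, and inhibition was calculated relative to agonist-plus-DMSO and known-inhibitor controls.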

human TLR9 = target: T2, human TLR9 (Homo sapiens, UniProt Q9NR96); assay: TLR9 inhibition reporter assay (HEK-Blue cells, secreted embryonic alkaline phosphatase reporter)
T2 construct: host or cells: HEK-Blue cells (HEK293-derived reporter line)
T2 sequence (Q9NR96 26-1032): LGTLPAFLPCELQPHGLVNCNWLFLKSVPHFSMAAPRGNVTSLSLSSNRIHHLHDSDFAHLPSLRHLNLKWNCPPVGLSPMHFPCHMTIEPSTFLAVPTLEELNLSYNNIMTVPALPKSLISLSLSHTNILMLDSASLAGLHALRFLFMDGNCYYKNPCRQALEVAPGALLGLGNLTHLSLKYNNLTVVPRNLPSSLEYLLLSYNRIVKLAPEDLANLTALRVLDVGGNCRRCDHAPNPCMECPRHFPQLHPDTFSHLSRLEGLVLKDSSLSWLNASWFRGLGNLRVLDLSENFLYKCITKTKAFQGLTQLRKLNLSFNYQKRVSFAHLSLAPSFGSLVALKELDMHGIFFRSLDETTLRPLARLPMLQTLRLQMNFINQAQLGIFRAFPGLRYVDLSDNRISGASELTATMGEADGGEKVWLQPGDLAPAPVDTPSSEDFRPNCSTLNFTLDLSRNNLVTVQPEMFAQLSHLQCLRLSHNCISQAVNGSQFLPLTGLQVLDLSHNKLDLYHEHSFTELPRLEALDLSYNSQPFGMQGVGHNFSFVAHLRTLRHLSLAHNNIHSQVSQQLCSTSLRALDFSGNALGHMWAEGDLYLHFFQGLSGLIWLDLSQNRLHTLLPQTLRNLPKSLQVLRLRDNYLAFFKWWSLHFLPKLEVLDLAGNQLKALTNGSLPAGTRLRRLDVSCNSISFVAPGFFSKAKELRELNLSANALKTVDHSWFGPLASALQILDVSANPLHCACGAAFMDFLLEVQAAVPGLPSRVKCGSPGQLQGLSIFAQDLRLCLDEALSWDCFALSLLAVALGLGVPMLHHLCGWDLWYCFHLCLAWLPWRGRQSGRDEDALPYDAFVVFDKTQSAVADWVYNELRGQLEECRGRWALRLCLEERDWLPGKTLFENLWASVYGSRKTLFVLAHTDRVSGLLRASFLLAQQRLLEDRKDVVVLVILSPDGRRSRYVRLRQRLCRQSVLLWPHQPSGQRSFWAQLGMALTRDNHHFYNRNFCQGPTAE
Outline: as §1

human TLR8 = target: T3, human TLR8 (Homo sapiens, UniProt Q9NR97); assay: TLR8 inhibition reporter assay (HEK-Blue cells, secreted embryonic alkaline phosphatase reporter); details: HEK-Blue cells overexpressing human TLR8, stimulated with R848 15.9 μM; read-out: TLR 8 IC50
T3 construct: host or cells: HEK-Blue cells (HEK293-derived reporter line)
T3 sequence (Q9NR97 27-1041): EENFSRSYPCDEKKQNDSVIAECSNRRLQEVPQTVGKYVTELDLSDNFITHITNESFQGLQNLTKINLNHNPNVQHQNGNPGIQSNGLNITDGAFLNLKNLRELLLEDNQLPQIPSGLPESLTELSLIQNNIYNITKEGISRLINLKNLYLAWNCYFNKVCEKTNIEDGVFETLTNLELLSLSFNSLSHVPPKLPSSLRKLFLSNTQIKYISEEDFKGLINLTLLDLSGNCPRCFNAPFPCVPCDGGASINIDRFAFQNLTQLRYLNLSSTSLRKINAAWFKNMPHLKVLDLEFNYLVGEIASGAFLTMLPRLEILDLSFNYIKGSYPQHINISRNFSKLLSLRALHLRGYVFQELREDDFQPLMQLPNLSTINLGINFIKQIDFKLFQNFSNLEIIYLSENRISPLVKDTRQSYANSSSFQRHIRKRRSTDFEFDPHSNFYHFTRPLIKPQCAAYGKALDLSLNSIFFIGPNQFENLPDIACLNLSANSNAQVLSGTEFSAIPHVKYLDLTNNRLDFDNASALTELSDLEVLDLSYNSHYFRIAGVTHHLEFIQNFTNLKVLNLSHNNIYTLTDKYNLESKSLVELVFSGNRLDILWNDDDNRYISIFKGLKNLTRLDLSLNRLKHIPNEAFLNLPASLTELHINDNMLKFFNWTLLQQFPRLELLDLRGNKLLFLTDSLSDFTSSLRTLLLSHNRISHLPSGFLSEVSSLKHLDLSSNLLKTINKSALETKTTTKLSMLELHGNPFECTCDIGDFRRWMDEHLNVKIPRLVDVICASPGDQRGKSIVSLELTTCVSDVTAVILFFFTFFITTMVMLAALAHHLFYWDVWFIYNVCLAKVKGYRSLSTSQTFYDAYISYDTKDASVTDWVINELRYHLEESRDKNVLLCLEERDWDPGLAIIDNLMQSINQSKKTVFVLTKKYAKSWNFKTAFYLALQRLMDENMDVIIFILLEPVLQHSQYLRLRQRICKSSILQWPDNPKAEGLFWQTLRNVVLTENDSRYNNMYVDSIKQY
Outline: as §1

[1] = HEK-Blue cells overexpressing human TLR9, stimulated with ODN2006 5 nM, read-out: TLR 9 IC50
[2] = HEK-Blue cells overexpressing human TLR9, stimulated with ODN2006 5 nM, 22 hour incubation, reporter readout
[3] = HEK-Blue human TLR9 reporter cells

Row | IC50 (human TLR7) [nM] | IC50 (human TLR9) [nM] | IC50 (human TLR9; [1]) [nM] | IC50 (human TLR8) [nM] | IC50 (human TLR9; [2]) [nM] | IC50 (human TLR9; [3]) [nM] | Compound
1 | > 50000 | 490 | 490 | > 50000 | – | – | Cn1c(-c2ccc(S(C)(=O)=O)cc2)nc2c(F)c(C3CCN(C4CC5CCC(C4)N5C4COC4)CC3)ccc21 (stereo not shown) [Example 195, 4-fluoro-1-methyl-2-(4-(methylsulfonyl)phenyl)-5-(1-(8-(oxetan-3-yl)-8-azabicyclo[3.2.1]octan-3-yl)piperidin-4-yl)-1H-benzo[d]imidazole]
2 | > 25000 | 210 | 211 | > 25000 | – | – | Cc1cc(C2CCN(C3CC4CCC(C3)N4C3CCOCC3)CC2)cc2c1nc(-c1ccc(S(C)(=O)=O)cc1)n2C (single isomer, unassigned) [Example 161, 1,4-dimethyl-2-(4-(methylsulfonyl)phenyl)-6-(1-(8-(tetrahydro-2H-pyran-4-yl)-8-azabicyclo[3.2.1]octan-3-yl)piperidin-4-yl)-1H-benzo[d]imidazole]
3 | 23800 | – | – | > 50000 | 10 | – | CC(C)N1C2CCC1CC(N1CCC(c3cc4c(cc3F)nc(-c3ccc(S(C)(=O)=O)cc3)n4C)CC1)C2 (single isomer, unassigned) [Example 98, 5-fluoro-6-(1-(8-isopropyl-8-azabicyclo[3.2.1]octan-3-yl)piperidin-4-yl)-1-methyl-2-(4-(methylsulfonyl)phenyl)-1H-benzo[d]imidazole]
4 | 22200 | – | 144 | > 50000 | – | 150 | COCCN1C2CCC1CC(N1CCC(c3cc(F)c4nc(-c5ccc(S(C)(=O)=O)cc5)n(C)c4c3)CC1)C2 (single isomer, unassigned) [Example 290, 4-fluoro-6-(1-(8-(2-methoxyethyl)-8-azabicyclo[3.2.1]octan-3-yl)piperidin-4-yl)-1-methyl-2-(4-(methylsulfonyl)phenyl)-1H-benzo[d]imidazole]
5 | 1500 | 170 | 167 | > 50000 | – | – | COCCN1C2CCC1CC(N1CCC(c3ccc4nc(-c5ccc(S(C)(=O)=O)cc5)n(C)c4c3F)CC1)C2 (single isomer, unassigned) [Example 276, 7-fluoro-6-(1-(8-(2-methoxyethyl)-8-azabicyclo[3.2.1]octan-3-yl)piperidin-4-yl)-1-methyl-2-(4-(methylsulfonyl)phenyl)-1H-benzo[d]imidazole]
6 | > 25000 | 110 | 109 | > 25000 | – | – | COc1ccc(-c2nc3c(C)cc(C4CCN(C5CC6CCC(C5)N6C5COC5)CC4)cc3n2C)cc1OC (single isomer, unassigned) [Example 164, 2-(3,4-dimethoxyphenyl)-1,4-dimethyl-6-(1-(8-(oxetan-3-yl)-8-azabicyclo[3.2.1]octan-3-yl)piperidin-4-yl)-1H-benzo[d]imidazole]
7 | 4700 | – | 253 | > 50000 | 250 | – | COc1ccc(-c2nc3ccc(C4CCN(C5CCN(C(C)C)CC5)CC4)cc3n2CC(F)F)cc1OC [Example 4, 1-(2,2-difluoroethyl)-2-(3,4-dimethoxyphenyl)-6-(1′-isopropyl-[1,4′-bipiperidin]-4-yl)-1H-benzo[d]imidazole]
8 | 7600 | – | 56 | > 25000 | – | 56 | Cc1cc(C2CCN(C3CC4CCC(C3)N4CC(C)C)CC2)cc2[nH]c(-c3ccc(S(C)(=O)=O)c(F)c3)nc12 (stereo not shown) [Example 346, 2-(3-fluoro-4-(methylsulfonyl)phenyl)-6-(1-(8-isobutyl-8-azabicyclo[3.2.1]octan-3-yl)piperidin-4-yl)-4-methyl-1H-benzo[d]imidazole]
9 | 2100 | – | – | 14200 | 300 | – | Cc1cc(-c2ccc(C3CCN(C(C)C)CC3)nc2)cc2c1nc(-c1ccc(S(C)(=O)=O)cc1)n2C [Example 365, 6-(6-(1-isopropylpiperidin-4-yl)pyridin-3-yl)-1,4-dimethyl-2-(4-(methylsulfonyl)phenyl)-1H-benzo[d]imidazole]
10 | > 50000 | – | – | > 50000 | 29 | – | CC(C)N1C2CCC1CC(N1CCC(c3ccc4nc(-c5ccc(S(C)(=O)=O)cc5)[nH]c4c3F)CC1)C2 (single isomer, unassigned) [Example 95, 7-fluoro-6-(1-(8-isopropyl-8-azabicyclo[3.2.1]octan-3-yl)piperidin-4-yl)-2-(4-(methylsulfonyl)phenyl)-1H-benzo[d]imidazole]
